Test results published in patent US7396837B2, “Antitumoral analogs of lamellarins” (Pharma Mar, S.A.U., priority 2002, dated 2008).

What was measured:
K-562 = experiment: SRB colorimetric cell growth inhibition assay, K-562; assay type: cell-based
In short: (§1)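 Continuous-exposure format, human tumour lines. SRB colour reaction quantifies growth/viability. Triplicate wells → mean ± SD → GI, TGI, LC.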

A-549 = experiment: SRB colorimetric cell growth inhibition assay, A-549; assay type: cell-based
In short: as §1

SK-MEL-28 = experiment: SRB colorimetric cell growth inhibition assay, SK-MEL-28; assay type: cell-based
In short: as §1

HT-29 = experiment: SRB colorimetric cell growth inhibition assay, HT-29; assay type: cell-based
In short: as §1

LoVo = experiment: SRB colorimetric cell growth inhibition assay, LoVo; assay type: cell-based
In short: as §1

LoVo-Dox = experiment: SRB colorimetric cell growth inhibition assay, LoVo-Dox (MDR); assay type: cell-based
In short: as §1

DU-145 = experiment: SRB colorimetric cell growth inhibition assay, DU-145; assay type: cell-based
In short: as §1

LNCaP = experiment: SRB colorimetric cell growth inhibition assay, LNCaP; assay type: cell-based
In short: as §1

SK-BR-3 = experiment: SRB colorimetric cell growth inhibition assay, SK-BR-3; assay type: cell-based
In short: as §1

IGROV = experiment: SRB colorimetric cell growth inhibition assay, IGROV; assay type: cell-based
In short: as §1

IGROV-ET = experiment: SRB colorimetric cell growth inhibition assay, IGROV-ET (ET-743 resistant); assay type: cell-based
In short: as §1

PANC-1 = experiment: SRB colorimetric cell growth inhibition assay, PANC-1; assay type: cell-based
In short: as §1

human topoisomerase I = target: T1, human topoisomerase I (Homo sapiens, UniProt P11387); experiment: Topoisomerase I DNA relaxation assay (supercoiled plasmid DNA); assay type: biochemical; settings: supercoiled plasmid DNA, each compound tested at 1 μM, agarose gel with ethidium bromide
T1 sequence (P11387 1-765): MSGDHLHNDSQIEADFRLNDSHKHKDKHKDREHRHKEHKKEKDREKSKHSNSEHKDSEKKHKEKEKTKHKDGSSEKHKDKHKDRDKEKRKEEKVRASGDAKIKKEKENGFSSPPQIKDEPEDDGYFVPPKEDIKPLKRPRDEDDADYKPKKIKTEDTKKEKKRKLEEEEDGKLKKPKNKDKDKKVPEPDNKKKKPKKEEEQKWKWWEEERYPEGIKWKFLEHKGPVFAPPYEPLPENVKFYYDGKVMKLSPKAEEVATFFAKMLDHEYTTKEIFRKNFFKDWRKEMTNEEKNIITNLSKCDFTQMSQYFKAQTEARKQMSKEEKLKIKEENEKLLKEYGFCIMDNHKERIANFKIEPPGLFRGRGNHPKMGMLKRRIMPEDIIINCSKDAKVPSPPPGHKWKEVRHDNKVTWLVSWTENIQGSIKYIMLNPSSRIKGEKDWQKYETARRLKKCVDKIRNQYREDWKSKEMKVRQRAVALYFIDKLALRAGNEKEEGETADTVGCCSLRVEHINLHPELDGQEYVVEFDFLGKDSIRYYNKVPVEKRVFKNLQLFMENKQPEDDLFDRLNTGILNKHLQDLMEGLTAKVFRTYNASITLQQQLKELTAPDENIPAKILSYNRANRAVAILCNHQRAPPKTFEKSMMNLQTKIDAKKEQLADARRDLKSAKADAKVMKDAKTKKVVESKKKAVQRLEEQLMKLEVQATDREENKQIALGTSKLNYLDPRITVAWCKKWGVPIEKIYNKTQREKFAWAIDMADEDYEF
Protocol: Two assays, based on DNA relaxation and DNA cleavage (Bailly, C. DNA relaxation and cleavage assays to study topoisomerase I inhibitors. Methods Enzymol. 2001, 340, 610-623) were used evaluate the effects of the lamellarin analogs on the catalytic activity of human topoisomerase I.
In the first assay, a supercoiled plasmid DNA was relaxed with topoisomerase I in the absence or presence of the test compounds, each tested at 1 μM. DNA relaxation products were then resolved by gel electrophoresis on agarose gels containing ethidium bromide to stain the DNA.

`COc1cc(-c2c3n(c4c(=O)oc5cc(OC(=O)[C@@H](N)C(C)C)c(OC)cc5c24)CCc2cc(OC(=O)[C@@H](N)C(C)C)c(OC)cc2-3)ccc1OC(=O)[C@@H](N)C(C)C` [Compound 135] gave an IC (TGI) (K-562; Homo sapiens, K562, K-562, total growth inhibition (cytostatic effect), read-out: TGI K-562) of 6.82 µM, a CC50 (K-562; Homo sapiens, K562, read-out: LC50 K-562, K-562, cell killing (cytotoxic effect)) of 8.76 µM and a GI50 (K-562; K-562, GI=growth inhibition, read-out: GI50 K-562) of 1.07 µM. The GI50 (A-549; A-549, GI=growth inhibition, read-out: GI50 A-549) was 3.34 µM, the IC (TGI) (A-549; Homo sapiens, A549, A-549, total growth inhibition (cytostatic effect), read-out: TGI A-549) was 8.76 µM and the CC50 (A-549; Homo sapiens, A549, read-out: LC50 A-549, A-549, cell killing (cytotoxic effect)) was 8.76 µM. The GI50 (SK-MEL-28; MEL-28, GI=growth inhibition, read-out: GI50 MEL-28) was 1.67 µM, the “TGI MEL-28” value (SK-MEL-28; MEL-28, total growth inhibition (cytostatic effect)) was 5.00E−06 Molar and the CC50 (SK-MEL-28; human) was 8.76 µM. The GI50 (HT-29; HT-29, GI=growth inhibition, read-out: GI50 HT-29) was 1.15 µM, the IC (TGI) (HT-29; Homo sapiens, HT-29, HT-29, total growth inhibition (cytostatic effect), read-out: TGI HT-29) was 4.82 µM and the CC50 (HT-29; Homo sapiens, HT-29, read-out: LC50 HT-29, HT-29, cell killing (cytotoxic effect)) was 8.76 µM. For the same compound, the CC50 (LoVo; Homo sapiens, LoVo, read-out: LC50 LOVO, LOVO, cell killing (cytotoxic effect)) was 8.76 µM, the IC (TGI) (LoVo; Homo sapiens, LOVO, total growth inhibition (cytostatic effect), read-out: TGI LOVO) was 8.76 µM and the GI50 (LoVo; LOVO, GI=growth inhibition, read-out: GI50 LOVO) was 2.69 µM. For the same compound, the IC (TGI) (LoVo-Dox; Homo sapiens, LOVO-DOX, total growth inhibition (cytostatic effect), read-out: TGI LOVO-DOX) was 8.76 µM, the CC50 (LoVo-Dox; Homo sapiens, read-out: LC50 LOVO-DOX, LOVO-DOX, cell killing (cytotoxic effect)) was 8.76 µM and the GI50 (LoVo-Dox; LOVO-DOX, GI=growth inhibition, read-out: GI50 LOVO-DOX) was 3.8 µM. For the same compound, the GI50 (DU-145; DU-145, GI=growth inhibition, read-out: GI50 DU-145) was 1.6 µM, the “TGI DU-145” value (DU-145; DU-145, total growth inhibition (cytostatic effect)) was 3.78E−06 Molar and the CC50 (DU-145; human) was 8.76 µM. For the same compound, the GI50 (LNCaP; LN-caP, GI=growth inhibition, read-out: GI50 LN-caP) was 0.783 µM, the “TGI LN-caP” value (LNCaP; LN-caP, total growth inhibition (cytostatic effect)) was 2.02E−06 Molar and the CC50 (LNCaP; human) was 4.91 µM. The GI50 (SK-BR-3; SK-BR-3, GI=growth inhibition, read-out: GI50 SK-BR-3) was 0.579 µM, the “TGI SK-BR-3” value (SK-BR-3; SK-BR-3, total growth inhibition (cytostatic effect)) was 2.61E−06 Molar and the CC50 (SK-BR-3; human) was 8.76 µM. The GI50 (IGROV; IGROV, GI=growth inhibition, read-out: GI50 IGROV) was 2.1 µM, the “TGI IGROV” value (IGROV; IGROV, total growth inhibition (cytostatic effect)) was 4.68E−06 Molar and the CC50 (IGROV; human) was 8.76 µM. The GI50 (IGROV-ET; IGROV-ET, GI=growth inhibition, read-out: GI50 IGROV-ET) was 0.586 µM, the “TGI IGROV-ET” value (IGROV-ET; IGROV-ET, total growth inhibition (cytostatic effect)) was 1.98E−06 Molar and the CC50 (IGROV-ET; human) was 6.33 µM. It also gave an IC (TGI) (PANC-1; Homo sapiens, PANC-1, PANC-1, total growth inhibition (cytostatic effect), read-out: TGI PANC-1) of 5.53 µM, a CC50 (PANC-1; Homo sapiens, PANC-1, read-out: LC50 PANC-1, PANC-1, cell killing (cytotoxic effect)) of 8.76 µM and a GI50 (PANC-1; PANC-1, GI=growth inhibition, read-out: GI50 PANC-1) of 2.11 µM. The “stimulation of DNA cleavage by topoisomerase I / inhibition of topoisomerase I (nicked DNA band) in DNA relaxation assay” value (human topoisomerase I) was “No effect”.

`COc1cc(-c2c3n(c4c(=O)oc5cc(OC(=O)c6cc(F)c(F)c(F)c6F)c(OC)cc5c24)CCc2cc(OC(=O)c4cc(F)c(F)c(F)c4F)c(OC)cc2-3)ccc1OC(=O)c1cc(F)c(F)c(F)c1F` [Compound 139] was tested, and the “stimulation of DNA cleavage by topoisomerase I / inhibition of topoisomerase I (nicked DNA band) in DNA relaxation assay” value (human topoisomerase I) was “inactive”.

`COc1cc(-c2c3n(c4c(=O)oc5cc(OC(=O)[C@@H](NC(=O)OC(C)(C)C)C(C)C)c(OC)cc5c24)CCc2cc(OC(=O)[C@@H](NC(=O)OC(C)(C)C)C(C)C)c(OC)cc2-3)ccc1OC(=O)[C@@H](NC(=O)OC(C)(C)C)C(C)C` [Compound 144] was tested, and the “stimulation of DNA cleavage by topoisomerase I / inhibition of topoisomerase I (nicked DNA band) in DNA relaxation assay” value (human topoisomerase I) was “No effect”.
